Test results reported in patent publication US10287252B2, “Inhibitors of tryptophan-2,3-dioxygenase or indoleamine-2,3-dioxygenase” (IOmet Pharma Ltd., priority 2014, dated 2019).

How the values were obtained:
[1] = target: TDO (Homo sapiens, UniProt P48775); assay: A172 Kynurenine cell based assay; parameters: This assay utilised cancer cells which expressed either TDO or IDO; endogenous in cells; host or cells: A172 (human glioblastoma); settings: A172 (human glioblastoma) cells, 500 μM L-tryptophan, 48 hours, kynurenine by Erhlich's reagent; for IC50: read-out: A172 Kynurenine cell based assay pIC50 (converted)
Sequence of TDO (P48775 whole entry): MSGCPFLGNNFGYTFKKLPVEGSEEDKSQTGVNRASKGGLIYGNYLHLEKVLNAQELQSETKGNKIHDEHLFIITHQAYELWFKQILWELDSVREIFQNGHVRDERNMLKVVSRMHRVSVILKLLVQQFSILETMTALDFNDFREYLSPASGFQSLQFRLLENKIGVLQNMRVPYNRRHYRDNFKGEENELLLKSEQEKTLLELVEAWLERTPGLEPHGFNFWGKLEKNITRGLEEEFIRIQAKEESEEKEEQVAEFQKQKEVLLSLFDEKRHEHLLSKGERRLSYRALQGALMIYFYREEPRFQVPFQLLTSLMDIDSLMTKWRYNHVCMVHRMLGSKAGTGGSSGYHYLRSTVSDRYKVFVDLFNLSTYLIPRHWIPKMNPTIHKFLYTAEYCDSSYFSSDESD
Experimental: (§1) Exemplary compounds of the invention were prepared, and tested to determine their effect as TDO and/or IDO inhibitors. Two different assays were employed: 1. a cell-based assay for detecting the effect of test compounds on kynurenine production in two different cancer cell types. This assay utilised cancer cells which expressed either TDO or IDO and as such was used as a means of testing compound activity at these two enzymes in a cell-based context. 2. a TDO and IDO biochemical coupled assay which utilised recombinantly produced and purified TDO and IDO enzymes in combination with the enzyme formamidase. This coupled enzyme system allowed conversion of N-formylkynurenine produced by TDO or IDO activity to kynurenine which was then quantified by fluorescence following addition of Erhlich's Reagent The protocols for these are set out below.
(§2) Cell Based Assay for Detection of Kynurenine Produced by TDO and/or IDO
(§3) A172 (human glioblastoma) and SKOV3 (human ovarian adenocarcinoma) cells were seeded in a 96 well plate at 30,000 or 40,000 cells per well respectively in phenol red-free RPMI supplemented with 10% FCS, 2 mM L-glutamine and 500 μM L-tryptophan. IDO expression was induced in the SKOV3 cells by the addition of 500 ng/ml IFN-γ. Cells were incubated at 37° C. with or without the addition of test compound. After 48 hours, the cells were removed by centrifugation and Erhlich's reagent was added to the supernatant. The Erhlich's reagent was incubated for 5 minutes before the absorbance was read at 490 nm.

[2] = target: IDO (Homo sapiens, UniProt P14902); assay: SKOV3 Kynurenine cell based assay; parameters: IDO expression was induced in the SKOV3 cells by the addition of 500 ng/ml IFN-γ; endogenous in cells; host or cells: SKOV3 (human ovarian adenocarcinoma), induced with IFN-γ; settings: SKOV3 (human ovarian adenocarcinoma) cells, IDO induced by 500 ng/ml IFN-γ, 500 μM L-tryptophan, 48 hours; for IC50: read-out: SKOV3 Kynurenine cell based assay pIC50 (converted)
Sequence of IDO (P14902 whole entry): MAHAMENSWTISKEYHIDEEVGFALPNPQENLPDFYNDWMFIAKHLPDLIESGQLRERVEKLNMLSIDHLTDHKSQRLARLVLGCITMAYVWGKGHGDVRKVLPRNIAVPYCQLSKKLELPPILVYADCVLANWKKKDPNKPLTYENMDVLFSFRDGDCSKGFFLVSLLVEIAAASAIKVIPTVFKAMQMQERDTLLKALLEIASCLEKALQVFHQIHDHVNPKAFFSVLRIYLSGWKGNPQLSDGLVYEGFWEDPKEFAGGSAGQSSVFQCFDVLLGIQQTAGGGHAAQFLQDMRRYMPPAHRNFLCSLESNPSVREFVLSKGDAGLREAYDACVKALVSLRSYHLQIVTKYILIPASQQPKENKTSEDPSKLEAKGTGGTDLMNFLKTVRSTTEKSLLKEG
Experimental: as §1, §2, §3

Compound	A172 Kynurenine cell based assay pIC50 [1]	SKOV3 Kynurenine cell based assay pIC50 [2]	IC50 [1]	IC50 [2]
O=S(=O)(Nc1ccc2cnccc2c1)c1ccccc1 [Compound 39]	+/− (+/− = pIC50 <4.00)	+ (+ = pIC50 4.00-4.49)		
O=S(=O)(Nc1cccc2cnccc12)c1cccc(OC(F)F)c1 [Compound 26]	+++ (+++ = pIC50 ≥5.50)	++ (++ = pIC50 4.50-5.49)		
O=C(Nc1ccc2cnccc2c1)c1ccccc1 [Compound 32]	+/− (+/− = pIC50 <4.00)	+ (+ = pIC50 4.00-4.49)		
O=S(=O)(Nc1cccc2cnccc12)c1ccc(Cl)cc1 [Compound 12]	++ (++ = pIC50 4.50-5.49)	++ (++ = pIC50 4.50-5.49)		
CN1CCOC(C(=O)Nc2cccc3cnccc23)C1 (stereo not shown) [Compound 8]	++ (++ = pIC50 4.50-5.49)	++ (++ = pIC50 4.50-5.49)		
Nc1nccc2c(NS(=O)(=O)c3ccccc3)cccc12 [Compound 40]	+ (+ = pIC50 4.00-4.49)	+ (+ = pIC50 4.00-4.49)		
COc1ccc(S(=O)(=O)Nc2cccc3cnccc23)cc1 [Compound 35]	+++ (+++ = pIC50 ≥5.50)	++ (++ = pIC50 4.50-5.49)		
O=S(=O)(Nc1cccc2cnccc12)c1ccc(F)cc1F [Compound 23]	+/− (+/− = pIC50 <4.00)	+ (+ = pIC50 4.00-4.49)		
CC(C)CS(=O)(=O)N(c1cccc2cnccc12)S(=O)(=O)CC(C)C [Compound 5]	+/− (+/− = pIC50 <4.00)	+ (+ = pIC50 4.00-4.49)		
Cc1ccc(S(=O)(=O)Nc2cccc3cnccc23)cc1 [Compound 10]	+/− (+/− = pIC50 <4.00)	++ (++ = pIC50 4.50-5.49)		
O=S(=O)(Nc1cccc2cnccc12)c1ccc(Cl)s1 [Compound 29]	++ (++ = pIC50 4.50-5.49)	++ (++ = pIC50 4.50-5.49)		
O=S(=O)(Nc1cccc2cnccc12)c1ccccc1F [Compound 21]	++ (++ = pIC50 4.50-5.49)	++ (++ = pIC50 4.50-5.49)		
O=S(=O)(Nc1cccc2cnccc12)c1ccccc1Cl [Compound 11]	++ (++ = pIC50 4.50-5.49)	++ (++ = pIC50 4.50-5.49)		
O=C(Nc1cccc2cnccc12)c1ccccc1 [Compound 7]	+/− (+/− = pIC50 <4.00)	+ (+ = pIC50 4.00-4.49)		
O=C(Nc1cncc2ccccc12)c1ccccc1 [Compound 33]	+/− (+/− = pIC50 <4.00)	+ (+ = pIC50 4.00-4.49)		
CC(C)S(=O)(=O)Nc1cccc2cnccc12 [Compound 37]	+ (+ = pIC50 4.00-4.49)	+/− (+/− = pIC50 <4.00)		
O=S(=O)(Nc1cccc2cnccc12)c1ccc(-c2ccccc2)cc1 [Compound 20]	+++ (+++ = pIC50 ≥5.50)	+++ (+++ = pIC50 ≥5.50)		
CN1CCOc2cc(S(=O)(=O)Nc3cccc4cnccc34)ccc21 [Compound 28]			≤ 3.16 µM	3.24 to 31.6 µM
Cc1cccc(S(=O)(=O)Nc2cccc3cnccc23)c1 [Compound 17]	+++ (+++ = pIC50 ≥5.50)	++ (++ = pIC50 4.50-5.49)		
O=S(=O)(Nc1cccc2cnccc12)c1cccc(Cl)c1 [Compound 13]	++ (++ = pIC50 4.50-5.49)	++ (++ = pIC50 4.50-5.49)		
COc1ccc(S(=O)(=O)Nc2cccc3cnccc23)cc1OC [Compound 18]	+/− (+/− = pIC50 <4.00)	+ (+ = pIC50 4.00-4.49)		
CS(=O)(=O)c1ccc(S(=O)(=O)Nc2cccc3cnccc23)cc1 [Compound 34]	+/− (+/− = pIC50 <4.00)	+ (+ = pIC50 4.00-4.49)		
N#Cc1ccccc1S(=O)(=O)Nc1cccc2cnccc12 [Compound 36]	+/− (+/− = pIC50 <4.00)	+ (+ = pIC50 4.00-4.49)		
CC(C)Oc1ccc(S(=O)(=O)Nc2cccc3cnccc23)cc1 [Compound 31]	+/− (+/− = pIC50 <4.00)	+++ (+++ = pIC50 ≥5.50)		
CCCS(=O)(=O)Nc1cccc2cnccc12 [Compound 15]	++ (++ = pIC50 4.50-5.49)	+/− (+/− = pIC50 <4.00)		
Cc1ccccc1S(=O)(=O)Nc1cccc2cnccc12 [Compound 27]	+++ (+++ = pIC50 ≥5.50)	++ (++ = pIC50 4.50-5.49)		
CC(=O)Nc1ccc(S(=O)(=O)Nc2cccc3cnccc23)cc1 [Compound 24]	+/− (+/− = pIC50 <4.00)	++ (++ = pIC50 4.50-5.49)		
O=S(=O)(Nc1cncc2ccccc12)c1ccccc1 [Compound 38]	+ (+ = pIC50 4.00-4.49)	+ (+ = pIC50 4.00-4.49)		
O=S(=O)(Nc1cccc2cnccc12)c1cccc2cccnc12 [Compound 30]	+/− (+/− = pIC50 <4.00)	+ (+ = pIC50 4.00-4.49)		
O=S(=O)(Nc1cccc2cnccc12)c1ccc2c(c1)OCCO2 [Compound 19]	+++ (+++ = pIC50 ≥5.50)	+++ (+++ = pIC50 ≥5.50)		

Continued, values first:

A172 Kynurenine cell based assay pIC50 [1]	SKOV3 Kynurenine cell based assay pIC50 [2]	IC50 [1]	IC50 [2]	Compound
+/− (+/− = pIC50 <4.00)	+ (+ = pIC50 4.00-4.49)			O=C(Nc1ccccc1)c1cccc2cnccc12 [Compound 43]
+ (+ = pIC50 4.00-4.49)	++ (++ = pIC50 4.50-5.49)			O=S(=O)(Nc1ccccc1)c1cccc2cnccc12 [Compound 44]
		> 100 µM	32.4 to 100 µM	CS(=O)(=O)N1CCN(c2cccc3cnccc23)CC1 [Compound 45, 5-(4-(methylsulfonyl)piperazin-1-yl)isoquinoline]
+/− (+/− = pIC50 <4.00)	+ (+ = pIC50 4.00-4.49)			CC(=O)Nc1cc2c(NS(=O)(=O)c3ccccc3)cccc2cn1 [Compound 41]
+ (+ = pIC50 4.00-4.49)	++ (++ = pIC50 4.50-5.49)			O=S(=O)(Nc1cccc2ccncc12)c1ccc(Cl)cc1 [Compound 55]
+ (+ = pIC50 4.00-4.49)	+ (+ = pIC50 4.00-4.49)			CN(c1ccccc1)S(=O)(=O)c1cccc2cnccc12 [Compound 42]
+ (+ = pIC50 4.00-4.49)	+ (+ = pIC50 4.00-4.49)			O=S(=O)(Nc1cccc2ccncc12)c1ccc(-c2ccccc2)cc1 [Compound 54]
+/− (+/− = pIC50 <4.00)	++ (++ = pIC50 4.50-5.49)			O=S(=O)(NC1CCCc2cnccc21)c1ccc(Cl)cc1 (stereo not shown) [Compound 51]
+/− (+/− = pIC50 <4.00)	+ (+ = pIC50 4.00-4.49)			CC(=O)N1CCN(c2cccc3cnccc23)CC1 [Compound 48]
+ (+ = pIC50 4.00-4.49)	++ (++ = pIC50 4.50-5.49)			O=S(=O)(Nc1ccc(Cl)cc1)c1cccc2cnccc12 [Compound 46]
+/− (+/− = pIC50 <4.00)	+++ (+++ = pIC50 ≥5.50)			O=S(=O)(NC1CCCc2cnccc21)c1ccc(-c2ccccc2)cc1 (stereo not shown) [Compound 50]
		> 100 µM	≤ 3.16 µM	CC(C)Oc1ccc(S(=O)(=O)NC2CCCc3cnccc32)cc1 (stereo not shown) [Compound 52]
+/− (+/− = pIC50 <4.00)	+ (+ = pIC50 4.00-4.49)			O=S(=O)(NC1CCCc2cnccc21)c1ccccc1 (stereo not shown) [Compound 49]
++ (++ = pIC50 4.50-5.49)	++ (++ = pIC50 4.50-5.49)			O=S(=O)(Nc1ccc(-c2ccccc2)cc1)c1cccc2cnccc12 [Compound 47]
